This assay addresses recombinant human ACC2 (Homo sapiens (Human), UniProt O00763). The experiment in a line: Measurement of inhibitory activity on human ACC2 (MALDI-TOF MS, acetyl CoA to malonyl CoA conversion). The class given is biochemical. As to conditions: Tables 155-159. The method in brief:
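His-tagged human ACC2 (residues 27–2458) from baculovirus-infected Sf-9 cells was preincubated 1 h in pH 7.4 HEPES-KOH buffer with MgCl2, 6-10 mM potassium citrate, glutathione and BSA. Substrate solution held 1 mM ATP, 0.8 mM acetyl CoA and 25-50 mM bicarbonate. After 1–3 h at room temperature, malonyl CoA/(malonyl+acetyl CoA) was read by negative-mode MALDI-TOF MS; citrate, bicarbonate and time varied by enzyme lot.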

Chain of recombinant human ACC2 (O00763 27-2458): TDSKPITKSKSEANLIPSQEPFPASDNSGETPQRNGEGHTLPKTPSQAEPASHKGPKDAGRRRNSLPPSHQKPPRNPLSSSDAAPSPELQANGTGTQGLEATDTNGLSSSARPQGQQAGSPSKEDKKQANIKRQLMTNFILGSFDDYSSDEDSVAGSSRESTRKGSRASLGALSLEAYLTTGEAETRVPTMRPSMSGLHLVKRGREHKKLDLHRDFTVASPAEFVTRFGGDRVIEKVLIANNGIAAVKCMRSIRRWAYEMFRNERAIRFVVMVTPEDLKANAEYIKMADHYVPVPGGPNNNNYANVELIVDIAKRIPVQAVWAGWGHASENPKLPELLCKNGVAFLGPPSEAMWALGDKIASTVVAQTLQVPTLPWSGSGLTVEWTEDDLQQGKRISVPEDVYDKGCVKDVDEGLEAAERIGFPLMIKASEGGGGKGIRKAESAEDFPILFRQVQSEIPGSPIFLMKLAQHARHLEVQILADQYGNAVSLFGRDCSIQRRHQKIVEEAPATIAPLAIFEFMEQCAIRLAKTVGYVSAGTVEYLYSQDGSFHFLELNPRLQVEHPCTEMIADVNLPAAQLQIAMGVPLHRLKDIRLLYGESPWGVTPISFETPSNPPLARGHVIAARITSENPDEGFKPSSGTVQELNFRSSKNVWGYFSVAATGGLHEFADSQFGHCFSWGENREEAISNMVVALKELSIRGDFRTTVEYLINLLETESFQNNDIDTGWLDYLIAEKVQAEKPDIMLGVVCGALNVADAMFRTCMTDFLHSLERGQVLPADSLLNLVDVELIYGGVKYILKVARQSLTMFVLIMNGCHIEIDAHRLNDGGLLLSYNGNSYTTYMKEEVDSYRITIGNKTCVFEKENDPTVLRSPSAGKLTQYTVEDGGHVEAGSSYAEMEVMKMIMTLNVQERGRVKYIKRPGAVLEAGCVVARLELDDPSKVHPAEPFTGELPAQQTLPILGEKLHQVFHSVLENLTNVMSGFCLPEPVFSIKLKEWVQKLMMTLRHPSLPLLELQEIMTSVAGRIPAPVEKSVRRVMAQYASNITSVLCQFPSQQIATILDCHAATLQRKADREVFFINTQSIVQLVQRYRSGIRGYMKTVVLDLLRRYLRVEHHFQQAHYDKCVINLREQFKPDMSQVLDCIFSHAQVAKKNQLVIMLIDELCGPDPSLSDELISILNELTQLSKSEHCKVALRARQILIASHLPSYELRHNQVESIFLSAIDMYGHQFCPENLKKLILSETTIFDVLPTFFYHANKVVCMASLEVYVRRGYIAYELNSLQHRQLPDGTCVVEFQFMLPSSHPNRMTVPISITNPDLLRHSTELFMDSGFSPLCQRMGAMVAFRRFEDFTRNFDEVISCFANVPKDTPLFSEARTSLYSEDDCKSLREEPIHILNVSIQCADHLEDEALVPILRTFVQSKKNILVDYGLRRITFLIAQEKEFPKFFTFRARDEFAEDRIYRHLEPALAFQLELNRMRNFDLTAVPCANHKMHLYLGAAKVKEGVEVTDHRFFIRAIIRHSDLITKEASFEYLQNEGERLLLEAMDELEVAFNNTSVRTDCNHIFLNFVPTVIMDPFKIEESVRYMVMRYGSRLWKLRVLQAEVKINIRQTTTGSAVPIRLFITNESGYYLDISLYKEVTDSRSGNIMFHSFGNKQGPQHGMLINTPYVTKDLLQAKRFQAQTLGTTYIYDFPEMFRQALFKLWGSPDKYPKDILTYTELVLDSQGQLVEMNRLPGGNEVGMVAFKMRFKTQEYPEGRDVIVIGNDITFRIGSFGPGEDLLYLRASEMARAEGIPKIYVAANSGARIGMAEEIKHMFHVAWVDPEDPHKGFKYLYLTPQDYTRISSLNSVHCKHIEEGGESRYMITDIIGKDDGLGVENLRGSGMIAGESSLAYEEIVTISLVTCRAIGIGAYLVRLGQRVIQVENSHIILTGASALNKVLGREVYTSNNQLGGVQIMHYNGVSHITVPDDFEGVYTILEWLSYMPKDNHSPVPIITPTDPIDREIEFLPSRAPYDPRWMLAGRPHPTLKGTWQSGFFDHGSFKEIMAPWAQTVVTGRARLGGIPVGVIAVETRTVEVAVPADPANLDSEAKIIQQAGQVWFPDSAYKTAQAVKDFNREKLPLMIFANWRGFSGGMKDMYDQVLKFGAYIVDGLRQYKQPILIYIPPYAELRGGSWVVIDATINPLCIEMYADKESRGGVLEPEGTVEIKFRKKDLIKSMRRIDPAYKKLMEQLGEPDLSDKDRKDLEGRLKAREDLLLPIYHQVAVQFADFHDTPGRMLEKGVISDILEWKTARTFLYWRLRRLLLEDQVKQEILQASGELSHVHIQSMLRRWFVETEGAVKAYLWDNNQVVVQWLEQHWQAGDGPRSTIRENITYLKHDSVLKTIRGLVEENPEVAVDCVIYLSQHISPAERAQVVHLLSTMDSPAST

For the compound `CC(=O)N[C@@H](C)CO[C@H]1CC[C@H](Oc2nc3cnc(OC(C)C)cc3n2C)CC1` [Compound I-607], the IC50 (in general, the concentration that inhibits the measured activity by half) came out at 0.11 µM. The result for `CC(=O)N[C@@H](C)CO[C@H]1CC[C@H](Oc2nc3cnc(OC[C@H](C)F)c(Cl)c3n2C)CC1` [Compound I-608] reads 0.011 µM; that for `CC(=O)N[C@@H](C)CO[C@H]1CC[C@H](Oc2nc3c(Cl)c(Cl)c(OCC(F)F)cc3n2C)CC1` [Compound I-609], 0.525 µM; that for `CCOc1cc2c(nc(O[C@H]3CC[C@H](OC[C@H](C)NC(C)=O)CC3)n2C)c(F)c1Cl` [Compound I-610], 0.085 µM. In the case of `CC(=O)N[C@@H](C)CO[C@H]1CC[C@H](Oc2nc3c(F)cc(OC4CC4)c(F)c3n2C)CC1` [Compound I-611], the IC50 is 0.003 µM. The result for `C[C@@H](CO[C@H]1CC[C@H](Oc2nc3c(F)cc(OCC(F)F)c(F)c3n2C)CC1)NC(=O)C(F)F` [Compound I-614] reads 0.011 µM; that for `CC(=O)N[C@@H](C)CC[C@H]1OC[C@H](Oc2nc3c(F)cc(OCC(F)F)c(F)c3n2C)CO1` [Compound I-615], 0.027 µM; that for `CC(=O)N[C@@H](C)CO[C@H]1CC[C@H](Oc2nc3c(F)cc(OC4CN(C(C)=O)C4)c(F)c3n2C)CC1` [Compound I-616], 0.24 µM.

`CC(=O)N[C@@H](C)CO[C@H]1CC[C@H](Oc2nc3c(C#N)cc(OC4CC4)c(F)c3n2C)CC1` [Compound I-617]: the IC50 came to 0.009 µM.

On to `CC(=O)N[C@@H](C)CO[C@H]1CC[C@H](Oc2nc3c(Cl)c(F)c(OCC(F)F)c(F)c3n2C)CC1` [Compound I-618], for which the IC50 is 0.017 µM. Consider `CC(=O)N[C@@H](C)CO[C@H]1CC[C@H](Oc2nc3c(F)c(F)c(F)c(F)c3n2C)CC1` [Compound I-619], for which the IC50 amounted to 0.009 µM.

Consider `CC(=O)N[C@@H](C)CO[C@H]1CC[C@H](Oc2nc3cnc(OCc4ccccc4)c(Cl)c3n2C)CC1` [Compound I-620], for which the IC50 was 0.028 µM.

Consider `CC(=O)N[C@@H](C)CO[C@H]1CC[C@H](Oc2nc3ccc(C4CC4)c(F)c3n2C)CC1` [Compound I-621], for which the IC50 is 0.008 µM. In the case of `CC(=O)N[C@@H](C)CO[C@H]1CC[C@H](Oc2nc3c(F)cc(Br)cc3n2C)CC1` [Compound I-622] it was 0.072 µM; in that of `CC(=O)N[C@@H](C)CO[C@H]1CC[C@H](Oc2nc3c(Cl)cc(OCC(F)F)c(Cl)c3n2C)CC1` [Compound I-623], 0.017 µM. In the case of `CC(=O)N[C@@H](C)CO[C@H]1CC[C@H](Oc2nc3cnc(OCC(F)F)c(F)c3n2C)CC1` [Compound I-624] it was 0.009 µM; in that of `CC(=O)N[C@@H](C)CO[C@H]1CC[C@H](Oc2nc3cnc(OCC4CC4)c(F)c3n2C)CC1` [Compound I-625], 0.005 µM; in that of `CC(=O)N[C@@H](C)CO[C@H]1CC[C@H](Oc2nc3c(F)cc(OCC4CC4)c(F)c3n2C)CC1` [Compound I-626], 0.006 µM.

On to `CC(=O)N[C@@H](C)CC[C@@H]1CC[C@@H](Oc2nc3c(F)cc(OCC(F)F)c(F)c3n2C)CO1` [Compound I-627], for which the IC50 is 0.005 µM. In the case of `C[C@@H](CO[C@H]1CC[C@H](Oc2nc3c(F)cc(OCC(F)F)c(F)c3n2C)CC1)NC(=O)CO` [Compound I-628] it was 0.059 µM; in that of `C[C@@H](CO[C@H]1CC[C@H](Oc2nc3c(F)cc(OCC(F)F)c(F)c3n2C)CC1)NC(=O)c1cnn(C)c1` [Compound I-629], 0.098 µM; in that of `CC(=O)N[C@@H](C)CO[C@H]1CC[C@H](Oc2nc3c(F)cc(F)c(F)c3n2C)CC1` [Compound I-630], 0.025 µM. Consider `C[C@@H](CO[C@H]1CC[C@H](Oc2nc3c(F)cc(OCC(F)F)c(F)c3n2C)CC1)NC(=O)N(C)C` [Compound I-631], for which the IC50 is 0.01 µM. In the case of `CC(=O)N[C@@H](C)CO[C@H]1CC[C@H](Oc2nc3c(C)nc(OC4CC4)c(F)c3n2C)CC1` [Compound I-632] it was 0.019 µM. In the case of `CC(=O)N[C@@H](C)CO[C@H]1CC[C@H](Oc2nc3cnc(OCc4ccccc4)c(F)c3n2C)CC1` [Compound I-634] it was 0.034 µM; in that of `CCOc1cc(F)c2c(nc(O[C@H]3CC[C@H](OC[C@H](C)NC(C)=O)CC3)n2C)c1F` [Compound I-635], 0.104 µM; in that of `CC(=O)N[C@@H](C)CC[C@H]1CC[C@H](Oc2nc3cnc(OC4CC4)c(Cl)c3n2C)CC1` [Compound I-636], 0.004 µM. In the case of `CC(=O)N[C@@H](C)CO[C@H]1CC[C@H](Oc2nc3c(F)cc(OCC(F)F)c(Cl)c3n2C)CC1` [Compound I-637] it was 0.004 µM; in that of `CC(=O)N[C@@H](C)CO[C@H]1CC[C@H](Oc2nc3c(Cl)ccc(F)c3n2C)CC1` [Compound I-638], 0.14 µM.

On to `CC(=O)N[C@@H](C)CO[C@H]1CC[C@H](Oc2nc3c(F)cc(OC4CCC4)c(F)c3n2C)CC1` [Compound I-639], for which the IC50 amounted to 0.002 µM.

Take `C[C@@H](CO[C@H]1CC[C@H](Oc2nc3c(F)cc(OCC(F)F)c(F)c3n2C)CC1)NC(=O)COC(N)=O` [Compound I-640]: the IC50 came out at 0.11 µM. Consider `CCOc1cc2c(nc(O[C@H]3CC[C@H](OC[C@H](C)NC(C)=O)CC3)n2C)c(F)n1` [Compound I-641], for which the IC50 is 0.073 µM. In the case of `CC(=O)N[C@@H](C)CC[C@H]1CC[C@H](Oc2nc3c(F)cc(OCC(F)F)c(F)c3n2C)CO1` [Compound I-642] it was 0.007 µM; in that of `CC(=O)N[C@@H](C)C(F)(F)C[C@@H]1CC[C@@H](Oc2nc3c(F)cc(OCC(F)F)c(F)c3n2C)CO1` [Compound I-643], 0.25 µM. In the case of `CC(=O)N[C@@H](C)CC[C@H]1OC[C@H](Oc2nc3cnc(OCC(F)F)c(Cl)c3n2C)C[C@@H]1C` [Compound I-644] it was 0.026 µM; in that of `CCOc1ncc2nc(O[C@H]3CC[C@H](OC[C@H](C)NC(C)=O)CC3)n(C)c2c1Cl` [Compound I-646], 0.015 µM. The result for `CC(=O)N[C@@H](C)CO[C@H]1CC[C@H](Oc2nc3cnc(OC(C)C)c(Cl)c3n2C)CC1` [Compound I-647] reads 0.006 µM; that for `CC(=O)N[C@@H](C)CO[C@H]1CC[C@H](Oc2nc3c(Cl)cc(C4CC4)cc3n2C)CC1` [Compound I-648], 0.11 µM; that for `CC(=O)N[C@@H](C)CO[C@H]1CC[C@H](Oc2nc3c(Cl)cc(Oc4ccccc4)cc3n2C)CC1` [Compound I-649], 0.009 µM. As for `CC(=O)N[C@@H](C)CO[C@H]1CC[C@H](Oc2nc3c(C4CC4)cc(OCC(F)F)cc3n2C)CC1` [Compound I-650], the IC50 was 0.375 µM. The result for `CCOc1cc(Cl)c2nc(O[C@H]3CC[C@H](OC[C@H](C)NC(C)=O)CC3)n(C)c2c1F` [Compound I-651] reads 0.004 µM; that for `CC(=O)N[C@@H](C)CO[C@H]1CC[C@H](Oc2nc3c(F)cc(OCc4ccccc4)c(F)c3n2C)CC1` [Compound I-652], 0.007 µM.

In the case of `CC(=O)N[C@@H](C)CO[C@H]1CC[C@H](Oc2nc3c(C#N)cc(OCC(F)F)c(F)c3n2C)CC1` [Compound I-653], the IC50 came to 0.065 µM. The result for `CC(=O)N[C@@H](C)CO[C@H]1CC[C@H](Oc2nc3c(F)cc(OC4CC4)c(Cl)c3n2C)CC1` [Compound I-655] reads 0.002 µM; that for `C[C@@H](CO[C@H]1CC[C@H](Oc2nc3c(F)cc(OCC(F)F)c(F)c3n2C)CC1)NC(=O)c1cn[nH]c1` [Compound I-656], 0.039 µM; that for `CC(=O)N[C@@H](C)CC[C@H]1CC[C@H](Oc2nc3cnc(OCC(F)F)c(Cl)c3n2C)CO1` [Compound I-657], 0.014 µM.

With `CC(=O)N[C@@H](C)CO[C@H]1CC[C@H](Oc2nc3cc(F)c(OCC(F)F)c(F)c3n2C)CC1` [Compound I-658], the IC50 was 0.004 µM.

As to `CC(=O)N[C@@H](C)[C@H](C)O[C@H]1CC[C@H](Oc2nc3c(F)cc(OCC(F)F)c(F)c3n2C)CC1` [Compound I-659], the IC50 was found to be 0.023 µM. For `CCOc1ccc2nc(O[C@H]3CC[C@H](OC[C@H](C)NC(C)=O)CC3)n(C)c2c1-c1ccccc1` [Compound I-661], the IC50 was found to be 0.457 µM.

Take `CC(=O)N[C@@H](C)CO[C@H]1CC[C@H](Oc2nc3cnc(OCC4CC4)c(Cl)c3n2C)CC1` [Compound I-662]: the IC50 was 0.005 µM. The result for `CC(=O)N[C@@H](C)CO[C@H]1CC[C@H](Oc2nc3c(C#N)cc(C4CC4)cc3n2C)CC1` [Compound I-663] reads 0.7 µM; that for `CC(=O)N[C@@H](C)CO[C@H]1CC[C@H](Oc2nc3cnc(OC4(C)CC4)c(Cl)c3n2C)CC1` [Compound I-664], 0.011 µM; that for `CCOc1cc(F)c2nc(O[C@H]3CC[C@H](OC[C@H](C)NC(C)=O)CC3)n(C)c2c1F` [Compound I-665], 0.004 µM. Turning to `COc1cc(OCc2ccccc2)cc2c1nc(O[C@H]1CC[C@H](OC[C@H](C)NC(C)=O)CC1)n2C` [Compound I-666], the IC50 was found to be 0.298 µM. The result for `CC(=O)N[C@@H](C)CO[C@H]1CC[C@H](Oc2nc3cnc(OC4CC4)c(F)c3n2C)CC1` [Compound I-667] reads 0.008 µM. With `C[C@@H](CO[C@H]1CC[C@H](Oc2nc3c(F)cc(OC4CC4)c(F)c3n2C)CC1)NC(=O)CO` [Compound I-668], the IC50 worked out at 0.007 µM. Consider `CC(=O)N[C@@H](CO)CO[C@H]1CC[C@H](Oc2nc3cnc(OCC(F)F)c(Cl)c3n2C)CC1` [Compound I-669], for which the IC50 was 0.62 µM. In the case of `C[C@@H](CO[C@H]1CC[C@H](Oc2nc3c(F)cc(OCC(F)F)c(F)c3n2C)CC1)NC(N)=O` [Compound I-670] it was 0.011 µM.

In the case of `C[C@@H](CO[C@H]1CC[C@H](Oc2nc3c(F)cc(OC4CC4)c(F)c3n2C)CC1)NS(C)(=O)=O` [Compound I-671], the IC50 was found to be 0.011 µM. In the case of `COC(=O)N[C@@H](C)CO[C@H]1CC[C@H](Oc2nc3c(F)cc(OCC(F)F)c(F)c3n2C)CC1` [Compound I-672] it was 0.03 µM. In the case of `CC(=O)N[C@@H](C)CO[C@H]1CC[C@H](Oc2nc3c(C(N)=O)cc(OC4CC4)c(F)c3n2C)CC1` [Compound I-673] it was 0.65 µM.

These data come from US10150728B2, “Alkylene derivatives” (Shionogi & Co., Ltd., priority 2013, dated 2018).
